# Data taken from the NIST ThermoML archive (doi:10.1016/j.jct.2019.02.019).
# ± gives the expanded uncertainty stated by the source.
# Columns and labels:
# [1] = xn = mol fraction of the nth substance listed; settings: 101 kPa, Liquid, x2 = 0; for viscosity: Capillary tube (Ostwald / Ubbelohde) method; for mass density: Vibrating tube method
# [2] = 101 kPa, Liquid; for viscosity: Capillary tube (Ostwald / Ubbelohde) method; for mass density: Vibrating tube method
SMILES,viscosity ([1]; 293.15 K) [mPa·s],mass density ([1]; 293.15 K) [kg/m3],viscosity ([1]; 303.15 K) [mPa·s],mass density ([1]; 303.15 K) [kg/m3],viscosity ([1]; 313.15 K) [mPa·s],mass density ([1]; 313.15 K) [kg/m3],viscosity ([1]; 323.15 K) [mPa·s],mass density ([1]; 323.15 K) [kg/m3],viscosity ([2]; 293.15 K) [mPa·s],mass density ([2]; 293.15 K) [kg/m3],viscosity ([2]; 303.15 K) [mPa·s],mass density ([2]; 303.15 K) [kg/m3],viscosity ([2]; 313.15 K) [mPa·s],mass density ([2]; 313.15 K) [kg/m3],viscosity ([2]; 323.15 K) [mPa·s],mass density ([2]; 323.15 K) [kg/m3]
CCO [ethanol] + CN(CCO)CCO,1.17 ± 0.05,788.88 ± 1,0.97 ± 0.04,781.69 ± 1,0.81 ± 0.03,772.3 ± 1,0.69 ± 0.03,765.29 ± 1,–,–,–,–,–,–,–,–
CCO [ethanol] + NCCO,1.17 ± 0.05,788.88 ± 1,0.97 ± 0.04,781.69 ± 1,0.81 ± 0.03,772.3 ± 1,0.69 ± 0.03,765.29 ± 1,–,–,–,–,–,–,–,–
NCCO [2-aminoethan-1-ol] + CN(CCO)CCO,23.4 ± 0.95,1016.3 ± 1,14.71 ± 0.6,1008.02 ± 1,9.77 ± 0.4,999.98 ± 1,6.83 ± 0.28,991.97 ± 1,–,–,–,–,–,–,–,–
CN(CCO)CCO [N-methyldiethanolamine],–,–,–,–,–,–,–,–,103.04 ± 4.3,1040.5 ± 1,57.28 ± 2.3,1032.6 ± 1,33.94 ± 1.4,1024.76 ± 1,21.31 ± 0.87,1017.12 ± 1
CCO [ethanol],–,–,–,–,–,–,–,–,1.17 ± 0.05,788.88 ± 1,0.97 ± 0.04,781.69 ± 1,0.81 ± 0.03,772.3 ± 1,0.69 ± 0.03,765.29 ± 1
NCCO [2-aminoethan-1-ol],–,–,–,–,–,–,–,–,23.4 ± 0.95,1016.3 ± 1,14.71 ± 0.6,1008.02 ± 1,9.77 ± 0.4,999.98 ± 1,6.83 ± 0.28,991.97 ± 1
